Experimental data from patent US9295631B2, “Skin lightening composition” (Conopco, Inc., priority 2012, dated 2016).

Test system: Primary human melanocytes
Assay: Melanin content in-vitro assay after siRNA transfection
Assay type: cell-based
Design: dose or concentration left out as unconfirmed
Settings: 72 hours; average of 3 readings
Method: Ten siRNA double strands of which one strand has the oligonucleotide as given below were synthetically prepared and used to estimate the potential as skin lightening agent using the melanin content in-vitro assay. It is clear to a person skilled in this area that specifying a single strand is sufficient to fully define the double stranded siRNA. The in-vitro assay was carried out as below: Primary human melanocytes were cultured for 24 hrs. Cells were transfected with Mirus Trans IT-TKO transfection reagent and duplex oligomers in culture media. […] After 1 hour at 60° C., absorbance was measured at 400 nm. Melanin content is expressed as % melanin content over scramble treated cells. The experiments were carried out and the data on melanin content as a percentage of the control sample is summarized as an average of 3 readings in table 1. Kojic acid is known to complete action within 72 hours.

SMILES: O=c1cc(CO)occ1O [Kojic acid]
- % control melanin: 76%
